SMILES strings stand for the structures. In brackets after ≈: the same amount, converted by molar mass. Activity calls are given as the source filed them. No cut-off for these calls is given here. Where a SMILES comes first, the peptide text is derived from it. A value given as a limit tells only on which side of the number the result lay.

Series [1] concerns Staphylococcus aureus. The series is described as follows: Antibacterial activity against Staphylococcus aureus ATCC 25923 incubated for 18 to 24 hrs by broth microdilution method. Format: functional. (Broth dilution looks for growth in wells or tubes with falling amounts of substance.)
Series [2] concerns Staphylococcus aureus. Kind of series: Antibacterial activity against Staphylococcus aureus ATCC 29213 incubated for 18 to 24 hrs by broth microdilution method. The class given is functional.
In a further series the test system is Salmonella typhimurium. The series is described as follows: Antibacterial activity against Salmonella enterica serovar typhimurium C77-31 incubated for 18 to 24 hrs by broth microdilution method. Format: functional, Salmonella enterica subsp. enterica serovar Typhimurium.
For series [3], the system named is Escherichia coli. The series is described as follows: Antibacterial activity against Escherichia coli UB1005 incubated for 18 to 24 hrs by broth microdilution method. The class given is functional.
The test system of series [4] is Escherichia coli. The series is described as follows: Antibacterial activity against Escherichia coli ATCC 25922 incubated for 18 to 24 hrs by broth microdilution method. Format: functional.
The test system of series [5] is Staphylococcus epidermidis. Kind of series: Antibacterial activity against Staphylococcus epidermidis ATCC 12228 incubated for 18 to 24 hrs by broth microdilution method. Format: functional.
The test system of a further series is Erythrocyte. Kind of series: Haemolytic activity in human erythrocytes assessed as lowest concentration causing 5% hemolysis after 1 hr. Format: ADME, cell-based.
A short description of series [6]: Therapeutic index, ratio of MHC for human RBC to geometric mean of peptide MIC for Escherichia coli ATCC 25922. The class given is toxicity. To be noted: pooled result: one value given for 6 cell lines, strains, targets or settings, read-out: TI.
Series [7] in a line: Cytotoxicity against mouse RAW264.7 cells assessed as cell survival at <= 32 uM after 24 hrs by MTT assay relative to control. The class given is cell-based. To be noted: RAW264.7 cells, up to 32 µM, read-out: Activity. A general note: Formazan colour is commonly taken as a measure of viable cells.
Series [8] is described as follows: Solubility of the compound. Format: physicochemical.
The test system of series [9] is Acinetobacter baumannii. The series is described as follows: Antibacterial activity against Acinetobacter baumannii AB1901 clinical isolate incubated for 18 to 24 hrs by broth microdilution method. The class given is functional.
The subject of series [10] is Acinetobacter baumannii. The series is described as follows: Antibacterial activity against Acinetobacter baumannii AB1902 clinical isolate incubated for 18 to 24 hrs by broth microdilution method. The class given is functional.
Series [11] has as its system Escherichia coli. Kind of series: Resistance index, ratio of MIC for antibacterial activity against Escherichia coli ATCC 25922 treated over 35 serial passage by sequential passaging method to MIC for antibacterial activity against Escherichia coli ATCC 25922 incubated for 18 to 24 hrs by broth microdilution method. Format: functional.
In a further series the test system is Lipopolysaccharide (LPS). Kind of series: Displacement of BODIPY-TR-cadaverine from Escherichia coli O111:B4 LPS by spectrofluorophotometric method.
Series [12] concerns Escherichia coli. The series is described as follows: Induction of outer membrane permeabilization in Escherichia coli UB1005 assessed as increase in NPN uptake at 0.5 to 4 uM by spectrofluorophotometric assay. Format: organism-based.
For series [13], the system named is Escherichia coli. The series is described as follows: Induction of cytoplasmic membrane depolarization in Escherichia coli UB1005 at 2 uM by DiSC3-5 dye based fluorescence method. Format: organism-based.
The test system of series [14] is Escherichia coli. Kind of series: Inhibition of swimming motility of Escherichia coli ATCC 25922 at 1 to 4 uM after 16 hrs. The class given is functional, organism-based.
A further series deals with Pseudomonas aeruginosa. Kind of series: Antibacterial activity against Pseudomonas aeruginosa PAO1 at sub-MIC treated over 35 serial passages by resistant development assay. Format: functional, organism-based.

In general, MIC refers to the lowest concentration found to suppress growth. Take `CC(C)C[C@H](NC(=O)[C@H](CCCNC(=N)N)NC(=O)[C@H](Cc1c[nH]c2ccccc12)NC(=O)[C@H](CCCNC(=N)N)NC(=O)[C@@H](NC(=O)[C@H](Cc1c[nH]c2ccccc12)NC(=O)[C@H](Cc1c[nH]c2ccccc12)NC(=O)[C@H](CCCNC(=N)N)NC(=O)[C@H](CC(C)C)NC(=O)[C@H](Cc1c[nH]c2ccccc12)NC(=O)[C@@H](N)CCCNC(=N)N)[C@@H](C)O)C(=O)N[C@@H](CCCCN)C(N)=O` (H-RWLRWWTRWRLK-NH2): the MIC was determined as 2 µM (≈ 3.68 µg/mL) against Staphylococcus aureus [1]; 4 µM (≈ 7.37 µg/mL) in the series with Staphylococcus aureus [2]; 4 µM (≈ 7.37 µg/mL) against Salmonella typhimurium; 2 µM (≈ 3.68 µg/mL) against Escherichia coli [3]; 4 µM (≈ 7.37 µg/mL) in the series with Escherichia coli [4]; 4 µM (≈ 7.37 µg/mL) in series [5]. Moreover, the MHC with Erythrocyte worked out at 128 µM. Moreover, in [6], the selectivity ratio is 40.4. The viability at 24 h in series [7] was no less than 70%. Also, the solubility result in series [8] is “Insoluble”.
For `CC[C@H](C)[C@H](NC(=O)CN)C(=O)NCC(=O)N[C@@H](C)C(=O)N[C@H](C(=O)N[C@@H](CC(C)C)C(=O)N[C@@H](CCCCN)C(=O)N[C@H](C(=O)N[C@@H](CC(C)C)C(=O)N[C@H](C(=O)N[C@H](C(=O)NCC(=O)N[C@@H](CC(C)C)C(=O)N1CCC[C@H]1C(=O)N[C@@H](C)C(=O)N[C@@H](CC(C)C)C(=O)N[C@H](C(=O)N[C@@H](CO)C(=O)N[C@@H](Cc1c[nH]c2ccccc12)C(=O)N[C@H](C(=O)N[C@@H](CCCCN)C(=O)N[C@@H](CCCNC(=N)N)C(=O)N[C@@H](CCCCN)C(=O)N[C@@H](CCCNC(=N)N)C(=O)N[C@@H](CCC(N)=O)C(=O)N[C@@H](CCC(N)=O)C(N)=O)[C@@H](C)CC)[C@@H](C)CC)[C@@H](C)O)[C@@H](C)O)C(C)C)C(C)C` [MELITTIN], the MIC in the series on Acinetobacter baumannii [9] and against Acinetobacter baumannii [10] was 2 µM (≈ 5.69 µg/mL) throughout. Also, the MHC in the series on Erythrocyte is 0.25 µM. In the series with Escherichia coli [11], the Ratio amounted to 4. Further, in the series on Lipopolysaccharide (LPS), the Activity entry is “Dose-dependent effect”. In addition, the result in the series on Escherichia coli [12] and in the series with Escherichia coli [13] was Active. Also, in the series with Escherichia coli [14], the inhibition entry was “Active”. For the same compound, the outcome in the series with Pseudomonas aeruginosa was inactive.

(Values after ChEMBL document CHEMBL4311942, “Design of Trp-Rich Dodecapeptides with Broad-Spectrum Antimicrobial Potency and Membrane-Disruptive Mechanism” (J Med Chem, 2019).)
